Patent US20030022794A1, “Novel quaternary salts and their use in agricultural formulations” (priority 1997, published 2003)
Each block holds one compound with its values, some of them ahead of it.

Key:
Format in all cases: physicochemical
[1] = storage stability on aging, decomposition of the sulfonylurea measured by HPLC
Procedure: To 21.57 g 2-[[[[(4,6-dimethoxy-2-pyrimidinyl)amino]carbonyl]-amino]sulfonyl]-N,N-dimethyl-3-pyridinecarboxamide and 50 mL 1.0 N NaOH in 1400 mL methylene chloride was incrementally added 22.37 g of diisobutylphenoxy ethoxyethyl dimethylbenzyl ammonium chloride (Hyamine 1622, commercially available from Lonza), with several small methylene chloride washes to facilitate transfer. The reaction medium was filtered through a bed of molecular sieves to remove mineral salts and water. Methylene chloride was stripped to recover the white powder. Upon aging for 1 week at 54 C., 9% relative decomposition of the sulfonylurea resulted as measured by HPLC.
Into 7.8 g of epoxidized soybean oil (ESBO) was added with stirring: 1.18 g methyl 3-[[[[(4-methoxy-6-methyl-1,3,5-triazin-2-yl)amino]carbonyl]amino]sulfonyl]-2-thiophenecarboxylate tech (98.1%), 1.31 g of anhydrous diisobutylphenoxy ethoxyethyl dimethylbenzyl ammonium chloride […] (Hyamine 1622, available from Lonza), 0.11 g Ca(OH)2, and 0.03 g calcium acetate. The mixture was aged 3 weeks at 45° C. giving 0% relative decomposition of the sulfonylurea as measured by HPLC.
A solution on 15 g of methyl 2-[[[[(4-methoxy-6-methyl-1,3,5-triazin-2-yl)methylamino]carbonyl]amino]sulfonyl]benzoate tech (95.7%) and 18 g of Na2CO3 in 300 g of CH2Cl2 was treated with 1.5 g of NaOH and stirred 2 h. 8.65 g of benzyl triethyl ammonium chloride was added to the suspension and the mixture stirred overnight. The suspension was filtered and the filtrate stripped of solvent on a rotary evaporator yielding the corresponding sulfonylurea quaternary salt as a viscous yellow oil (15.7 g) using 1 g of the oil, a 20% solution of the quaternary salt was made in triethyl phosphate. Upon aging for 1 week at 54° C., 1% relative decomposition of the sulfonylurea resulted as indicated by HPLC.
A quaternary salt sulfonylurea was prepared using the procedure of Example 3 with 20 g methyl 2-[[[[(4-methoxy-6-methyl-1,3,5-triazin-2-yl)methylamino]carbonyl]-amino]sulfonyl]benzoate, 30 g Na2CO3, 400 g CH2Cl2, 2 g NaOH and 11.5 g benzyl triethyl ammonium chloride. One gram of the resulting orange viscous oil was made up as a 20% solution in triethyl phosphate. Upon aging for 1 week at 54° C., 2% relative decomposition of the sulfonylurea resulted as indicated by HPLC.
(§1) Tetradodecyl ammonium bromide was dissolved in 5 mL of CH2Cl2 and stirred with 3.3 mL of 1 N NaOH. To this was added 1.27 g of N-[[(4,6-dimethoxypyrimidine-2-yl)amino]carbonyl]-1-methyl-4-(2-methyl-2H-tetrazol-5-yl)-H-pyrazole-5-sulfonamide (97.8%) dissolved in 5 mL of CH2Cl2 and stirring continued for 5 min at 25° C. The organic phase was separated, washed with water, dried and the solvent removed tinder vacuum in a rotary evaporator at a maximum of 50° C. The resulting viscous, colorless oil gave an assay of 35% of the corresponding sulfonylurea quaternary salt (vs. 38% theory) using HPLC. This oil was more than-50% soluble in epoxidized soybean oil, methyl caprylate/caprate, and cottonseed oil. 50% solutions of the resultant sulfonylurea quaternary salt in these three solvents were aged 1 week at 54° C., giving 20-45% relative degradation by HPLC analysis.
In a vial was vortexed the following: 0.214 g methyl 2-[[[[[(4,6-dimethoxy-2-pyrimidinyl)amino]carbonyl]amino]sulfonyl]methyl]benzoate (98.3%), 0.192 g of a 25% aqueous solution of tetramethyl ammonium hydroxide, and 4.32 g of water to produce the sulfonylurea quaternary salt. Upon aging the solution at 54° C. for one week, 52% degradation of the sulfonylurea resulted as measured by HPLC.
(§2) Deionized water (5 g) was saturated with 2-[[[[(4,6-dimethoxy-2-pyrimidinyl)amino]carbonyl]amino]sulfonyl]-N,N-dimethyl-3-pyridinencarboxamide tech (500 ppm) and aged at 25° C. for 30 days.

[2] = solubility in organic solvents (epoxidized soybean oil, methyl caprylate/caprate, cottonseed oil)
Procedure: as §1

[3] = saturation of deionized water; details: tech material
Procedure: as §2

[4] = 20% solution in triethyl phosphate, aging 1 week at 54° C., HPLC

Compound: COC(=O)c1ccccc1CS(=O)(=O)[N-]C(=O)Nc1nc(OC)cc(OC)n1.C[N+](C)(C)C [B]
- degradation of the sulfonylurea ([1]; aqueous solution, aging at 54° C. for one week, HPLC): 52%

Compound: Quaternary Salt of Methyl 2-[[[[(4-Methoxy-6-Methyl-1,3,5-Triazin-0.2-yl)Methylamino]carbonyl]amino]sulfonyl]benzoate [Example 3]
- relative decomposition of the sulfonylurea [1, 4]: 1%

Compound: COc1cc(OC)nc(NC(=O)NS(=O)(=O)c2c(-c3nnn(C)n3)cnn2C)n1 [N-[[(4,6-dimethoxypyrimidine-2-yl)amino]carbonyl]-1-methyl-4-(2-methyl-2H-tetrazol-5-yl)-1H-pyrazole-5-sulfonamide]
- solubility (in words) ([2]; in epoxidized soybean oil, methyl caprylate/caprate, and cottonseed oil): practically insoluble

Compound: CCCCCCCCCCCC[N+](CCCCCCCCCCCC)(CCCCCCCCCCCC)CCCCCCCCCCCC.COc1cc(OC)nc(NC(=O)[N-]S(=O)(=O)c2c(-c3nnn(C)n3)cnn2C)n1 [A]
- relative degradation [1]: 20-45%
- solubility [2]: > 50%

Compound: COc1cc(OC)nc(NC(=O)NS(=O)(=O)c2ncccc2C(=O)N(C)C)n1 [C, 2-[[[[(4,6-dimethoxy-2-pyrimidinyl)amino]carbonyl]amino]sulfonyl]-N,N-dimethyl-3-pyridinencarboxamide]
- concentration at saturation in deionized water [3]: 500 ppm

Further lines, results first:

- relative decomposition of the sulfonylurea [1, 4]: 2%
Compound: Quaternary Salt of Methyl 2-[[[[(4-Methoxy-6-Methyl-1,3,5-Triazin-2-yl)Methylamino]carbonyl]amino]sulfonyl]benzoate [Example 4]

- relative decomposition of the sulfonylurea ([1]; isolated white powder, aging 1 week at 54 C, HPLC): 9%
Compound: Quaternary salt of 2-[[[[(4.6-Dimethoxy-2-Pyrimidinyl)amino]carbonyl]amino]sulfonyl]-N,N-Dimethyl-3-Pyridinecarboxamide [Example 1]

- relative decomposition of the sulfonylurea ([1]; in situ mixture in epoxidized soybean oil with Ca(OH)2 and calcium acetate, aged 3 weeks at 45° C., HPLC): 0%
Compound: In situ Quaternary Salt of Methyl 3-[[[[(4-Methoxy-6-Methyl-1,3,5-Triazin-2-yl)Amino]carbonyl]amino]sulfonyl]-2-Thiophenecarboxylate [Example 2]
